The results in this text go back to patent US12421254B2, “KRAS modulators and uses thereof” (Quanta Therapeutics, Inc., priority 2023, dated 2025).

pIC50: −log10 of the molar value. Some results are limits rather than exact numbers.

In test [1] the target is GST-tagged KRAS-G12D (2-169) (Homo sapiens, UniProt P01116, G12D). The test is described as follows: Nucleotide exchange assay (NEA), SOS-mediated, HTRF, KRAS G12D. In kind it is biochemical. As to conditions: Table 4; IC50 extracted at 30 min; 20 nM SOScat; read-out: NEA G12D IC50. The method, boiled down: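 SOS1cat-driven loading of fluorescent GTP-DY-647P1 (150 nM) onto GST-KRAS-G12D (2-169, 0.25 nM) read by time-resolved FRET; SOScat 20 nM, compound preincubated with KRAS 1 h at RT. Signal blanked to no-SOS reactions, normalized to DMSO; IC50 fitted from the 30-min read.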
For orientation: Time-resolved FRET reads energy transfer from a long-lived donor to a nearby acceptor.

Test [2] addresses GST-tagged KRAS-G12V (2-169) (Homo sapiens, UniProt P01116, G12V). As to the kind of experiment: Nucleotide exchange assay (NEA), SOS-mediated, HTRF, KRAS G12V. In kind it is biochemical. As to conditions: Table 4; IC50 extracted at 90 min; 80 nM SOS. The method, boiled down:
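Exchange onto fluorescent GTP-DY-647P1 (150 nM final) catalysed by 80 nM SOS1cat was followed by Tb-anti-GST HTRF at RT for up to 90 min, after 1 h compound pre-incubation with 0.25 nM GST-tagged KRAS-G12V (2-169), pH 7.3. DMSO = 0%, no-SOS blank = 100%; 4-parameter IC50 taken at 90 min.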

For test [3], the system named is phospho-ERK in GP2D (KRAS-G12D) cells. The test is described as follows: pERK In Cell Western (ICW) assay (Method B), GP2D. Type of test: cell-based. The method, boiled down: (§1)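 After overnight attachment, cells received nine half-log compound concentrations for 3 hours, were fixed, permeabilized and probed with phospho-ERK antibody plus DRAQ5. Normalized pERK signal versus blank control yields IC50 via variable-slope four-parameter fit.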

The test system of test [4] is phospho-ERK in SW620 (KRAS-G12V) cells. The test is described as follows: pERK In Cell Western (ICW) assay (Method B), SW620. In kind it is cell-based. The essentials: as §1
Where [5] appears, read: Homo sapiens, SW-620, 3 h, Table 4.

The pIC50 is the negative decadic logarithm of the IC50, by convention in mol/L.

Chain of GST-tagged KRAS-G12D (2-169) (P01116 2-169 isoform P01116-2 G12D): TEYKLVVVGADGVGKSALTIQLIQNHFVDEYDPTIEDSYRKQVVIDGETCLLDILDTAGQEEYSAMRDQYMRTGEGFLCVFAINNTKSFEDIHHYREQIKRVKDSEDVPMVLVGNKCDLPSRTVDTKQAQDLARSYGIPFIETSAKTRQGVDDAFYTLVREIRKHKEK
Chain of GST-tagged KRAS-G12V (2-169) (P01116 2-169 isoform P01116-2 G12V): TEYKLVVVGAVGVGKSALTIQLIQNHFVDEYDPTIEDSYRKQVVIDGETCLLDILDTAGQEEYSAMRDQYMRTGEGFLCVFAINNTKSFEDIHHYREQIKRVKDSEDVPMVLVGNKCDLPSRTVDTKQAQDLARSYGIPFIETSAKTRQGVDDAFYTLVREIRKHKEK

For `CC(c1cccnc1N)N(C)c1nc(OCCc2nccn2C)nc(N2CC3(CCc4sc(N)c(C#N)c43)C2)n1` (centres unmarked) [Compound 117, 2-amino-1′-[4-[1-(2-amino-3-pyridyl)ethyl-methyl-amino]-6-[2-(1-methylimidazol-2-yl)ethoxy]-1,3,5-triazin-2-yl]spiro[5,6-dihydrocyclopenta[b]thiophene-4,3′-azetidine]-3-carbonitrile], the pIC50 in test [1] was 6.00 to 7.00; in test [2], 7.00 to 8.00; in test [3] (GP2d, 3 h, Table 4), 6.00 to 7.00; in test [4] (setting [5]), 6.00 to 7.00.
Consider `N#Cc1c(N)sc2c1C1(CC2)CN(c2nc(OC[C@@]34CCCN3C[C@H](F)C4)nc(N3CCc4n[nH]c(N)c4C3)n2)C1` [Compound 35, 2-amino-1′-[4-(3-amino-2,4,6,7-tetrahydropyrazolo[4,3-c]pyridin-5-yl)-6-[[(2R,8S)-2-fluoro-1,2,3,5,6,7-hexahydropyrrolizin-8-yl]methoxy]-1,3,5-triazin-2-yl]spiro[5,6-dihydrocyclopenta[b]thiophene-4,3′-azetidine]-3-carbonitrile], for which the pIC50 in test [1] is 6.00 to 7.00; in test [2], 4.70 to 6.00; in test [3] (GP2d, 3 h, Table 4), 4.70 to 6.00; in test [4] (setting [5]), no more than 4.70.
`CC1(C#N)CCCCN(c2nc(OC[C@@]34CCCN3C[C@H](F)C4)nc(N3CC4(CCc5sc(N)c(C#N)c54)C3)n2)C1` (stereo partly drawn) [Compound 111, 2-amino-1′-[4-(3-cyano-3-methyl-azepan-1-yl)-6-[[(2R,8S)-2-fluoro-1,2,3,5,6,7-hexahydropyrrolizin-8-yl]methoxy]-1,3,5-triazin-2-yl]spiro[5,6-dihydrocyclopenta[b]thiophene-4,3′-azetidine]-3-carbonitrile]: the pIC50 in test [1] is greater than 8.00; in test [2], greater than 8.00; in test [3] (GP2d, 3 h, Table 4) it was 6.00 to 7.00; in test [4] (setting [5]) it was 6.00 to 7.00.
Turning to `CCN(c1nc(OC[C@@]23CCCN2C[C@H](F)C3)nc(N2CC3(C2)SCc2sc(N)c(C#N)c23)n1)[C@H](C)c1cccnc1N` [Compound 139A, 2-amino-1′-[4-[[(1*)-1-(2-amino-3-pyridyl)ethyl]-ethyl-amino]-6-[[(2R,8S)-2-fluoro-1,2,3,5,6,7-hexahydropyrrolizin-8-yl]methoxy]-1,3,5-triazin-2-yl]spiro[6H-thieno[3,4-b]thiophene-4,3′-azetidine]-3-carbonitrile], the negative logarithm of the IC50 (pIC50) is greater than 8.00 in test [1]; greater than 8.00 in test [2]; greater than 8.00 in test [3] (GP2d, 3 h, Table 4); greater than 8.00 in test [4] (setting [5]).
For `CCN(c1nc(OCCN2CCCCC2)nc(N2CC3(C2)SCc2sc(N)c(C#N)c23)n1)[C@H](C)c1cccnc1N` [Compound 178, 2-amino-1′-[4-[[(1R)-1-(2-amino-3-pyridyl)ethyl]-ethyl-amino]-6-[2-(1-piperidyl)ethoxy]-1,3,5-triazin-2-yl]spiro[6H-thieno[3,4-b]thiophene-4,3′-azetidine]-3-carbonitrile], the pIC50 in test [1] was 7.00 to 8.00; in test [2] it was greater than 8.00; in test [3] (GP2d, 3 h, Table 4), 6.00 to 7.00; in test [4] (setting [5]), 7.00 to 8.00.
On to `CC(c1cc(Cl)nnc1N)N(C)c1nc(OC[C@@]23CCCN2C[C@H](F)C3)nc(N2CC3(CCc4sc(N)c(C#N)c43)C2)n1` (stereo partly drawn) [Compound 132, 2′-amino-1-(4-((1-(3-amino-6-chloropyridazin-4-yl)ethyl)(methyl)amino)-6-(((2R,7aS)-2-fluorotetrahydro-1H-pyrrolizin-7a(5H)-yl)methoxy)-1,3,5-triazin-2-yl)-5′,6′-dihydrospiro[azetidine-3,4′-cyclopenta[b]thiophene]-3′-carbonitrile], for which the pIC50 is 7.00 to 8.00 in test [1]; greater than 8.00 in test [2]; 4.70 to 6.00 in test [3] (GP2d, 3 h, Table 4); 6.00 to 7.00 in test [4] (setting [5]).
Take `CC(c1ccn[nH]1)N(C)c1nc(OC[C@@]23CCCN2C[C@H](F)C3)nc(N2CC3(CCc4sc(N)c(C#N)c43)C2)n1` (stereo partly drawn) [Compound 129, 2-amino-1′-[4-[methyl-[1-(1H-pyrazol-5-yl)ethyl]amino]-6-[[(2R,8S)-2-fluoro-1,2,3,5,6,7-hexahydropyrrolizin-8-yl]methoxy]-1,3,5-triazin-2-yl]spiro[5,6-dihydrocyclopenta[b]thiophene-4,3′-azetidine]-3-carbonitrile]: the pIC50 in test [1] is 6.00 to 7.00; in test [2], greater than 8.00; in test [3] (GP2d, 3 h, Table 4), 4.70 to 6.00; in test [4] (setting [5]), 4.70 to 6.00.
Regarding `C[C@@]1(O)CCCN(c2nc(OCC3(CN4CCOCC4)CC3)nc(N3CC4(C3)c3c(sc(N)c3C#N)CC4F)n2)C1` (stereo partly drawn) [Compound 61, 2-amino-5-fluoro-1′-[4-[(3R)-3-hydroxy-3-methyl-1-piperidyl]-6-[[1-(morpholinomethyl)cyclopropyl]methoxy]-1,3,5-triazin-2-yl]spiro[5,6-dihydrocyclopenta[b]thiophene-4,3′-azetidine]-3-carbonitrile], the pIC50 was greater than 8.00 in test [1]; 7.00 to 8.00 in test [2]; 7.00 to 8.00 in test [3] (GP2d, 3 h, Table 4); 6.00 to 7.00 in test [4] (setting [5]).
Regarding `C[C@@]1(O)C[C@H](O)CN(c2nc(OC[C@@]34CCCN3C[C@H](F)C4)nc(N3CC4(CCc5sc(N)c(C#N)c54)C3)n2)C1` [Compound 67, 2-amino-1′-[4-[(3R,5S)-3,5-dihydroxy-3-methyl-1-piperidyl]-6-[[(2R,8S)-2-fluoro-1,2,3,5,6,7-hexahydropyrrolizin-8-yl]methoxy]-1,3,5-triazin-2-yl]spiro[5,6-dihydrocyclopenta[b]thiophene-4,3′-azetidine]-3-carbonitrile], the pIC50 in test [1] is 7.00 to 8.00; in test [2], 7.00 to 8.00; in test [3] (GP2d, 3 h, Table 4) it was 6.00 to 7.00; in test [4] (setting [5]) it was no more than 4.70.
For `CCN(c1nc(OC[C@@]23CCCN2C[C@H](F)C3)nc(N2CC3(C2)SCc2sc(N)c(C#N)c23)n1)C(C)c1nccnc1N` (single isomer, unassigned) [Compound 168B, 2-amino-1′-[4-[[(1*)-1-(3-aminopyrazin-2-yl)ethyl]-ethyl-amino]-6-[[(2R,8S)-2-fluoro-1,2,3,5,6,7-hexahydropyrrolizin-8-yl]methoxy]-1,3,5-triazin-2-yl]spiro[6H-thieno[3,4-b]thiophene-4,3′-azetidine]-3-carbonitrile], the pIC50 in test [1] was 7.00 to 8.00; in test [2], greater than 8.00; in test [3] (Table 4, 3 hours) it was 6.00 to 7.00; in test [4] (Table 4, 3 hours), 7.00 to 8.00.
In the case of `N#Cc1c(N)sc2c1C1(CC2)CN(c2nc(OC[C@@]34CCCN3C[C@H](F)C4)nc(N3CCCCC(O)C3)n2)C1` (stereo partly drawn) [Compound 50, 2-amino-1′-[4-(3-hydroxyazepan-1-yl)-6-[[(2R,8S)-2-fluoro-1,2,3,5,6,7-hexahydropyrrolizin-8-yl]methoxy]-1,3,5-triazin-2-yl]spiro[5,6-dihydrocyclopenta[b]thiophene-4,3′-azetidine]-3-carbonitrile], the pIC50 was 7.00 to 8.00 in test [1]; 7.00 to 8.00 in test [2]; 6.00 to 7.00 in test [3] (GP2d, 3 h, Table 4); 6.00 to 7.00 in test [4] (setting [5]).
`CCN(c1nc(OC[C@@]23CCCN2C[C@H](F)C3)nc(N2CC3(C2)SCc2sc(N)c(C#N)c23)n1)C(C)c1nccnc1N` (single isomer, unassigned) [Compound 168A, 2-amino-1′-[4-[[(1*)-1-(3-aminopyrazin-2-yl)ethyl]-ethyl-amino]-6-[[(2R,8S)-2-fluoro-1,2,3,5,6,7-hexahydropyrrolizin-8-yl]methoxy]-1,3,5-triazin-2-yl]spiro[6H-thieno[3,4-b]thiophene-4,3′-azetidine]-3-carbonitrile]: the pIC50 in test [1] was greater than 8.00; in test [2], greater than 8.00; in test [3] (Table 4, 3 hours), greater than 8.00; in test [4] (setting [5]), greater than 8.00.
For the compound `CC(c1ccnnc1N)N(C)c1nc(OC[C@@]23CCCN2C[C@H](F)C3)nc(N2CC3(CCc4sc(N)c(C#N)c43)C2)n1` (stereo partly drawn) [Compound 109, 2-amino-1′-[4-[1-(3-aminopyridazin-4-yl)ethyl-methyl-amino]-6-[[(2R,8S)-2-fluoro-1,2,3,5,6,7-hexahydropyrrolizin-8-yl]methoxy]-1,3,5-triazin-2-yl]spiro[5,6-dihydrocyclopenta[b]thiophene-4,3′-azetidine]-3-carbonitrile], the pIC50 is greater than 8.00 in test [1]; greater than 8.00 in test [2]; 6.00 to 7.00 in test [3] (GP2d, 3 h, Table 4); 7.00 to 8.00 in test [4] (setting [5]).
With `C[C@@]1(O)C[C@@H](F)CN(c2nc(OC[C@@]34CCCN3C[C@H](F)C4)nc(N3CC4(C3)SCc3sc(N)c(C#N)c34)n2)C1` [Compound 123, 2-amino-1′-[4-[[(2R,8S)-2-fluoro-1,2,3,5,6,7-hexahydropyrrolizin-8-yl]methoxy]-6-[(3R,5R)-5-fluoro-3-hydroxy-3-methyl-1-piperidyl]-1,3,5-triazin-2-yl]spiro[6H-thieno[3,4-b]thiophene-4,3′-azetidine]-3-carbonitrile], the pIC50 in test [1] was greater than 8.00; in test [2], greater than 8.00; in test [3] (GP2d, 3 h, Table 4), 7.00 to 8.00; in test [4] (setting [5]) it was 6.00 to 7.00.
